Results reported in patent US20200071326A1, “TAM KINASE INHIBITORS” (Syros Pharmaceuticals, Inc., priority 2017, published 2020).
Structures can show the parent of a compound that is named as a salt.

Columns and labels:
[1] = target: T1, TYRO3 (Homo sapiens, UniProt Q06418); assay: IMAP fluorescence polarization kinase assay, TYRO3; format: biochemical; conditions: ATP 54.0 μM, enzyme 2.5 nM, 60 minutes, read-out: TYRO3 inhibitory constant (Ki)
T1 sequence (Q06418 41-890): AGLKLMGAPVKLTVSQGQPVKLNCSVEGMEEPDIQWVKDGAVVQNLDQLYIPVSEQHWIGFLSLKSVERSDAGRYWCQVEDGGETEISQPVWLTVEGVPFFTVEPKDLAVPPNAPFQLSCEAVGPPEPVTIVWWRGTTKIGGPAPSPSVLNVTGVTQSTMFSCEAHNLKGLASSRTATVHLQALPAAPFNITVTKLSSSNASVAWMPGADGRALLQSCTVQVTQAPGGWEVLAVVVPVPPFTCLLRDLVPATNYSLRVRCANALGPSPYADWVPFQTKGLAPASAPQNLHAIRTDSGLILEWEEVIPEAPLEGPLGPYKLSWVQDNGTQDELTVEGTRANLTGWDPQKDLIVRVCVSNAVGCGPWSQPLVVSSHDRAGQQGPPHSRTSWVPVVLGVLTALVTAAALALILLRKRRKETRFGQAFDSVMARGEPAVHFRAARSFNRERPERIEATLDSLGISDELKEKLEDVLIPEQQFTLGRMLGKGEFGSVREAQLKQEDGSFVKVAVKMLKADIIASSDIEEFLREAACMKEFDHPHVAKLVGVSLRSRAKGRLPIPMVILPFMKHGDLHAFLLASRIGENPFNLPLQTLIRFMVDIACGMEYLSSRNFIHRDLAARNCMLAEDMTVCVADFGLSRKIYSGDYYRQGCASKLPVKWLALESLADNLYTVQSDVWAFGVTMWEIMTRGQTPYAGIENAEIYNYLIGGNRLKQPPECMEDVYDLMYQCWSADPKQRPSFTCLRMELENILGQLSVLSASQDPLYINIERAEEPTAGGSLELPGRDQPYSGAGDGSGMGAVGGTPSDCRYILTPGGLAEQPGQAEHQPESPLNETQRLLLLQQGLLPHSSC
Method: (§1) Activities of compounds against each of TYRO3, AXL, and MERTK as well as against FLT3, were determined using an immobilized metal ion affinity-based fluorescence polarization (“IMAP”) assay. A fluorescently-labeled substrate peptide was phosphorylated in the kinase reaction, after which a binding solution containing large trivalent metal-based nanoparticles was added and the phosphorylated substrate binds to these beads. This reduces the rotational speed of the substrate which is then detected using fluorescence polarization as a read-out.
(§2) The substrates used for each enzyme are as follows: AXL: 5F1-KKKKEEIYFFFG-NH2(SEQ ID NO:1); FLT3: 5F1-KKKKEEIYFFF-NH2 (SEQ ID NO:2); MERTK: 5F1-EFPIYDFLPAKKK-NH2 (SEQ ID NO:3); and TYRO3: 5F1-EFPIYDFLPAKKK-NH2 (SEQ ID NO:4).
(§3) This assay was performed in a 384-well, polystyrene microplate in a final volume of 8 μl. Substrate (final concentration=400 nM), ATP (final concentrations=24.7μM for AXL; 2.74 μM for FLT3; 2.69 μM for MERTK; and 54.0 μM for TYRO3), compounds and enzyme (final concentrations=2.5 nM for AXL, FLT3 and TYRO3; 1.5 nM for MERTK) were pipetted in this order into the appropriate reaction buffer (AXL: 50 mM HEPES, pH 8.0, 1 mM DTT, 10 mM MgCl2, 0.01% BRU35, 0.01% Triton X-100; FLT3: 50 mM HEPES, pH 8.0, 1 mM DTT, 10 mM MgCl2, 0.01% Triton X-100, 0.01% NP40; MERTK/TYRO3: 50 mM HEPES, pH 8.0, 1 mM DTT, 10 mM MgCl2, 0.01% Triton X-100) and incubated at room temperature for varying times (AXL, FLT3 and MERTK: 240 minutes; TYRO3: 60 minutes). IMAP binding solution was then dispensed, the plate incubated for 60 minutes at room temperature and the fluorescence polarization measured. Data were analyzed using XLfit.

[2] = target: T2, MERTK (Homo sapiens, UniProt Q12866); assay: IMAP fluorescence polarization kinase assay, MERTK; format: biochemical; conditions: ATP 2.69 μM, enzyme 1.5 nM, 240 minutes, read-out: MERTK inhibitory constant (Ki)
T2 sequence (Q12866 21-999): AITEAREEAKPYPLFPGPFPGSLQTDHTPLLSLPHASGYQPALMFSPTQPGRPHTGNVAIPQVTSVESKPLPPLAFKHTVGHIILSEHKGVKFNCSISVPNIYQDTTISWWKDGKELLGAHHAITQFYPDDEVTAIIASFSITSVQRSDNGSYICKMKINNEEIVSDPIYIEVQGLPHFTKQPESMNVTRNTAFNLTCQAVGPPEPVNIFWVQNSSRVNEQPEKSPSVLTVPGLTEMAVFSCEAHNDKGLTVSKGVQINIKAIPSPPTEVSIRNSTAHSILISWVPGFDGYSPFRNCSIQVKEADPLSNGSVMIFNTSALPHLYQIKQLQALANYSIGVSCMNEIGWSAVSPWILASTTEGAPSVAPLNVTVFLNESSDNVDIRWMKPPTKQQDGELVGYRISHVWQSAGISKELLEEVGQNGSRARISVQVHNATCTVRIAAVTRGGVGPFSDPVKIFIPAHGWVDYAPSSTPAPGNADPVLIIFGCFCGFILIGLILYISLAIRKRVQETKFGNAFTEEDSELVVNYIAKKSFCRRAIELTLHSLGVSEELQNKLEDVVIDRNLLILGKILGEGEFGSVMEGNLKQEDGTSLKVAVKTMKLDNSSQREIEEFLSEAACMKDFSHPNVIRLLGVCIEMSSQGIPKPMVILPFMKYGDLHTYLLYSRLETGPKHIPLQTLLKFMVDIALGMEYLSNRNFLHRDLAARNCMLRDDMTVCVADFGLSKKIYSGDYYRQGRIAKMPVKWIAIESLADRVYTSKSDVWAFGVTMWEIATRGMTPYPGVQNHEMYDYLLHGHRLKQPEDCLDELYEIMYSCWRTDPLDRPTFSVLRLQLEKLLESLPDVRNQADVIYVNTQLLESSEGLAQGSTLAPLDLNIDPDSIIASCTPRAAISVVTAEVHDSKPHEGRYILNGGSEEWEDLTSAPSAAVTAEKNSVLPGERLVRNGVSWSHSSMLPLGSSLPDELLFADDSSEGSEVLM
Method: as §1, §2, §3

## CCCc1cc2c(N[C@H]3CC[C@H](O)CC3)c(C(=O)NC3CCN(c4ncccn4)CC3)cnc2[nH]1 [Compound 104]
[1]
  Ki: < 100 nM
[2]
  Ki: < 100 nM

## CCCc1cc2c(N[C@H]3CC[C@H](N)CC3)c(-c3nccs3)cnc2[nH]1 [Compound 117]
[1]
  Ki: < 100 nM
[2]
  Ki: < 100 nM

## CCCc1cc2c(N[C@H]3CC[C@H](N)CC3)c(-c3ccccn3)cnc2[nH]1 [Compound 113]
[1]
  Ki: < 100 nM
[2]
  Ki: < 100 nM

## CCCc1cc2c(N[C@H]3CC[C@H](N)CC3)c(C(=O)Nc3ccc(F)cc3)cnc2[nH]1 [Compound 100, 4-(((1r,4r)-4-aminocyclohexyl)amino)-N-(4-fluorophenyl)-2-propyl-1H-pyrrolo [2,3-b]pyridine-5-carboxamide hydrochloride]
[1]
  Ki: < 100 nM
[2]
  Ki: < 100 nM

## CCCc1cc2c(N[C@H]3CC[C@H](N)CC3)c(-c3ccc(C)nn3)cnc2[nH]1 [Compound 127]
[1]
  Ki: < 100 nM
[2]
  Ki: < 100 nM

## CCCc1cc2c(N[C@H]3CC[C@H](N)CC3)c(Br)cnc2[nH]1 [Compound 142]
[1]
  Ki: < 100 nM
[2]
  Ki: < 100 nM

## CCC(C)c1cc2c(N[C@H]3CC[C@H](O)CC3)c(-c3ccc(S(=O)(=O)N4CCOCC4)cn3)cnc2[nH]1 (stereo partly drawn) [Compound 159]
[1]
  Ki: 1000 to 10000 nM
[2]
  Ki: 1000 to 10000 nM

## CCCc1cc2c(N[C@H]3CC[C@H](N)CC3)c(C(=O)NC)cnc2[nH]1 [Compound 139]
[1]
  Ki: < 100 nM
[2]
  Ki: < 100 nM

## CC(O)c1cc2c(N[C@H]3CC[C@H](O)CC3)c(-c3ccc(CN4CCOCC4)cn3)cnc2[nH]1 (stereo partly drawn) [Compound 143]
[1]
  Ki: < 100 nM
[2]
  Ki: < 100 nM

## CCCCCc1cc2c(N[C@H]3CC[C@H](N)CC3)c(C(=O)NCc3ccc(-n4ccnc4)cc3)cnc2[nH]1 [Compound 133]
[1]
  Ki: < 100 nM
[2]
  Ki: < 100 nM

## CCCc1cc2c(N[C@H]3CC[C@H](N)CC3)c(-c3ccc(N)cn3)cnc2[nH]1 [Compound 120]
[1]
  Ki: < 100 nM
[2]
  Ki: < 100 nM

## CCCc1cc2c(N[C@H]3CC[C@H](N)CC3)c(C(=O)OC)cnc2[nH]1 [Compound 140]
[1]
  Ki: < 100 nM
[2]
  Ki: < 100 nM

## CCCc1cc2c(N[C@H]3CC[C@H](N)CC3)c(-c3ccnc(N)n3)cnc2[nH]1 [Compound 123]
[1]
  Ki: < 100 nM
[2]
  Ki: < 100 nM

## CC(O)c1cc2c(N[C@H]3CC[C@H](N)CC3)c(C(=O)Nc3ccc(F)cc3)cnc2[nH]1 (stereo partly drawn) [Compound 148]
[1]
  Ki: 100 to 1000 nM
[2]
  Ki: 100 to 1000 nM

## CCCc1cc2c(N[C@H]3CC[C@H](N)CC3)c(-c3ccc(S(=O)(=O)N4CCOCC4)cn3)cnc2[nH]1 [Compound 115]
[1]
  Ki: < 100 nM
[2]
  Ki: < 100 nM

## N[C@H]1CC[C@H](Nc2c(C(=O)NCc3ccc(-n4ccnc4)cc3)cnc3[nH]c(C4CCCC4)cc23)CC1 [Compound 126]
[1]
  Ki: < 100 nM
[2]
  Ki: < 100 nM

## CCCc1cc2c(N[C@H]3CC[C@H](N)CC3)c(-c3cc(N)ccn3)cnc2[nH]1 [Compound 131]
[1]
  Ki: < 100 nM
[2]
  Ki: 100 to 1000 nM

## CCCc1cc2c(N[C@H]3CC[C@H](N)CC3)c(-c3ccc(F)cn3)cnc2[nH]1 [Compound 114]
[1]
  Ki: < 100 nM
[2]
  Ki: < 100 nM

## CCc1cc2c(N[C@H]3CC[C@H](O)CC3)c(-c3ccc(CN4CCOCC4)cn3)cnc2[nH]1 [Compound 144]
[1]
  Ki: < 100 nM
[2]
  Ki: < 100 nM

## CCCc1cc2c(N[C@H]3CC[C@H](N)CC3)c(-c3cnn(C)c3)cnc2[nH]1 [Compound 108, (1r,4r)-N1-(5-(1-methyl-1H-pyrazol-4-yl)-2-propyl-1H-pyrrolo[2,3-b]pyridine-4-yl)cyclohexane-1,4-diamine hydrochloride]
[1]
  Ki: < 100 nM
[2]
  Ki: < 100 nM

## CCC(C)c1cc2c(N[C@H]3CC[C@H](N)CC3)c(C(=O)Nc3ccc(F)cc3)cnc2[nH]1 (stereo partly drawn) [Compound 134]
[1]
  Ki: < 100 nM
[2]
  Ki: < 100 nM

## CCC(C)c1cc2c(N[C@H]3CC[C@H](O)CC3)c(C(=O)NC3CCN(c4ncccn4)CC3)cnc2[nH]1 (stereo partly drawn) [Compound 157]
[1]
  Ki: 1000 to 10000 nM
[2]
  Ki: 1000 to 10000 nM

## N[C@H]1CC[C@H](Nc2c(C(=O)NCc3ccc(-n4ccnc4)cc3)cnc3[nH]c(-c4ccccc4)cc23)CC1 [Compound 110]
[1]
  Ki: < 100 nM
[2]
  Ki: < 100 nM

## CC[C@H](C)c1cc2c(N[C@H]3CC[C@H](N)CC3)c(C(=O)Nc3ccc(F)cc3)cnc2[nH]1 [Compound 156]
[1]
  Ki: < 100 nM
[2]
  Ki: < 100 nM

## CCCc1cc2c(N[C@H]3CC[C@H](N)CC3)c(-c3ccnc(N4CCCC4)n3)cnc2[nH]1 [Compound 118, (1r,4r)-N1-(2-propyl-5-(2-(pyrrolidin-1-yl)pyrimidin-4-yl)-1H-pyrrolo[2,3-b]pyridine-4-yl)cyclohexane-1,4-diamine hydrochloride]
[1]
  Ki: < 100 nM
[2]
  Ki: < 100 nM

## CCCc1cc2c(N[C@H]3CC[C@H](N)CC3)c(C(=O)NC3CCOCC3)cnc2[nH]1 [Compound 124]
[1]
  Ki: < 100 nM
[2]
  Ki: < 100 nM

## CC(C)c1cc2c(N[C@H]3CC[C@H](N)CC3)c(C(=O)NCc3ccc(-n4ccnc4)cc3)cnc2[nH]1 [Compound 129]
[1]
  Ki: < 100 nM
[2]
  Ki: < 100 nM

## CCC(C)c1cc2c(N[C@H]3CC[C@H](O)CC3)c(C(=O)NC3CCN(C4=NCCCN4)CC3)cnc2[nH]1 (stereo partly drawn) [Compound 158]
[1]
  Ki: < 100 nM
[2]
  Ki: < 100 nM

## CCCc1cc2c(N[C@H]3CC[C@H](N)CC3)c(-c3cc(N)ncn3)cnc2[nH]1 [Compound 116]
[1]
  Ki: < 100 nM
[2]
  Ki: < 100 nM

## CCCc1cc2c(N[C@H]3CC[C@H](O)CC3)c(C(=O)Nc3ccc(F)cc3)cnc2[nH]1 [Compound 101]
[1]
  Ki: 100 to 1000 nM
[2]
  Ki: 100 to 1000 nM

## CCCC(OC)c1cc2c(N[C@H]3CC[C@H](N)CC3)c(C(=O)Nc3ccc(F)cc3)cnc2[nH]1 (stereo partly drawn) [Compound 153]
[1]
  Ki: < 100 nM
[2]
  Ki: 1000 to 10000 nM

## CCCc1cc2c(N[C@H]3CC[C@H](O)CC3)c(-c3ccc(CN4CCOCC4)cn3)cnc2[nH]1 [Compound 105]
[1]
  Ki: < 100 nM
[2]
  Ki: < 100 nM

## CCCc1cc2c(N[C@H]3CC[C@H](O)CC3)c(-c3ccc(CN4CCCC4)cn3)cnc2[nH]1 [Compound 125]
[1]
  Ki: < 100 nM
[2]
  Ki: < 100 nM
